Like-named read-outs stand apart in the source and are kept apart here.
What was measured:
Format in all cases: cell-based
[1] = molecular target: T1, EGFR L858R/T790M/C797S (BaF3-LTC cells) (Homo sapiens, UniProt P00533, C797S/L858R/T790M); test: EGFR degradation HTRF assay, BaF3-LTC cells
T1 construct: expressed in transfected cells; host or cells: BaF3
Procedure, shortened: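 EGFR remaining after a 16 h, 37 °C exposure (8 doses, 5-fold steps from 10 uM final, 0.2% DMSO) was quantified by HTRF antibodies in cell lysate. Percent inhibition relative to DMSO control was fitted by four-parameter logistic to give DC50; Dmax denotes maximal degradation.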

[2] = system: EGFR Del19/T790M/C797S (H1975-clone #28); test: EGFR degradation HTRF assay, H1975-clone #28 DTC cells
Procedure, shortened: (§1)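 Compounds (top 10 uM, 5-fold, 8 points, 0.2% DMSO) incubated 16 h at 37 °C on homozygous clones: #23 Del19/C797S, #28 Del19/T790M/C797S, exogenous EGFR only in H1975. HTRF on lysates quantified remaining EGFR relative to DMSO; four-parameter fit gave DC50 and Dmax.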

[3] = system: EGFR Del19/C797S (H1975-clone #23); test: EGFR degradation HTRF assay, H1975-clone #23 DC cells; conditions: for H1975 #23 DC Dmax (%): maximum percentage of degradation
Procedure, shortened: as §1

[4] = molecular target: T2, EGFR L858R/C797S (BaF3 LC cells) (Homo sapiens, UniProt P00533, C797S/L858R); test: EGFR degradation HTRF assay, BaF3 LC cells
T2 construct: expressed in transfected cells; host or cells: BaF3

[5] = BaF3-LTC cells; EGFR degradation, IC50 (DC50) from curve fit; read-out: DC50(nM) BaF3-LTC
[6] = BaF3-LTC cells; maximum percentage of inhibition (degradation); read-out: Dmax (%) BaF3-LTC
[7] = H1975 # 28 DTC cells; EGFR degradation, IC50 (DC50) from curve fit; read-out: DC50(nM) H1975 # 28 DTC
[8] = H1975 # 28 DTC cells; maximum percentage of inhibition (degradation)
[9] = H1975 #23 DC, 16h treatment, read-out: H1975 #23 DC DC50
[10] = BaF3 LC, 16h treatment, maximum percentage of degradation; read-out: BaF3 LC Dmax (%)
[11] = BaF3 LC, 16h treatment; read-out: BaF3 LC DC50
[12] = read-out: DC50(nM) H1975 # 28 DTC; H1975 # 28 DTC cells; EGFR degradation, IC50 (DC50) from curve fit
[13] = read-out: H1975 #23 DC DC50, 16h treatment
[14] = BaF3-LTC cells; maximum percentage of inhibition (degradation)

T2 sequence (P00533 25-1210 C797S/L858R): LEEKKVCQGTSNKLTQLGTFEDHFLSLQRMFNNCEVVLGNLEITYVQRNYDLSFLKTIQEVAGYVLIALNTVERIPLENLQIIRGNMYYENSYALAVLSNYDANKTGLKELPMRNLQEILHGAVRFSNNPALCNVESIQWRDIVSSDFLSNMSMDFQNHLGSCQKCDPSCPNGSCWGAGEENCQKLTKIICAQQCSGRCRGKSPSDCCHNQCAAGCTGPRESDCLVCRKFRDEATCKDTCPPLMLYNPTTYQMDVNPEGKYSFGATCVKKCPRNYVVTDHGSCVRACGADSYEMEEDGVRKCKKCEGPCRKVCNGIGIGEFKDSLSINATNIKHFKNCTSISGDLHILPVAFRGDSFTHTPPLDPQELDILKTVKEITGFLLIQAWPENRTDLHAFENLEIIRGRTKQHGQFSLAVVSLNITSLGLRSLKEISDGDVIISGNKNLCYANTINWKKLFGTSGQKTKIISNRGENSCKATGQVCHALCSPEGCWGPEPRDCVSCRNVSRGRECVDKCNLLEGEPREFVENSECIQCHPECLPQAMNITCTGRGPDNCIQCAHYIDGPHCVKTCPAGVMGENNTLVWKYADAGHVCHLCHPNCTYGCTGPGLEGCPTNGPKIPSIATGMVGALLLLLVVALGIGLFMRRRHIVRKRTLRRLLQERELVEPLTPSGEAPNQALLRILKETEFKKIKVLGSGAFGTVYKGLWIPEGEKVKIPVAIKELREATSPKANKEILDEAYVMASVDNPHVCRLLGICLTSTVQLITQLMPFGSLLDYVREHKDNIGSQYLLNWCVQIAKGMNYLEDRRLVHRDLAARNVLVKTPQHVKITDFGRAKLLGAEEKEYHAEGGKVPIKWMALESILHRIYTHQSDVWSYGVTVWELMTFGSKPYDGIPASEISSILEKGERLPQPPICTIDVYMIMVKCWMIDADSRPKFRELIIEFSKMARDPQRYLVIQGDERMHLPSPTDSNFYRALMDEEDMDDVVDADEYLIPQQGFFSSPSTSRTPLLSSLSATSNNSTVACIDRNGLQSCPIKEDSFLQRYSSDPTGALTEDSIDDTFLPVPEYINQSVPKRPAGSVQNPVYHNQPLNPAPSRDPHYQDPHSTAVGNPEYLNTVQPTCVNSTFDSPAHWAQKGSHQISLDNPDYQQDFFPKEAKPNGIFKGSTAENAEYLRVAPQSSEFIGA
T1 sequence (P00533 25-1210 T790M/C797S/L858R): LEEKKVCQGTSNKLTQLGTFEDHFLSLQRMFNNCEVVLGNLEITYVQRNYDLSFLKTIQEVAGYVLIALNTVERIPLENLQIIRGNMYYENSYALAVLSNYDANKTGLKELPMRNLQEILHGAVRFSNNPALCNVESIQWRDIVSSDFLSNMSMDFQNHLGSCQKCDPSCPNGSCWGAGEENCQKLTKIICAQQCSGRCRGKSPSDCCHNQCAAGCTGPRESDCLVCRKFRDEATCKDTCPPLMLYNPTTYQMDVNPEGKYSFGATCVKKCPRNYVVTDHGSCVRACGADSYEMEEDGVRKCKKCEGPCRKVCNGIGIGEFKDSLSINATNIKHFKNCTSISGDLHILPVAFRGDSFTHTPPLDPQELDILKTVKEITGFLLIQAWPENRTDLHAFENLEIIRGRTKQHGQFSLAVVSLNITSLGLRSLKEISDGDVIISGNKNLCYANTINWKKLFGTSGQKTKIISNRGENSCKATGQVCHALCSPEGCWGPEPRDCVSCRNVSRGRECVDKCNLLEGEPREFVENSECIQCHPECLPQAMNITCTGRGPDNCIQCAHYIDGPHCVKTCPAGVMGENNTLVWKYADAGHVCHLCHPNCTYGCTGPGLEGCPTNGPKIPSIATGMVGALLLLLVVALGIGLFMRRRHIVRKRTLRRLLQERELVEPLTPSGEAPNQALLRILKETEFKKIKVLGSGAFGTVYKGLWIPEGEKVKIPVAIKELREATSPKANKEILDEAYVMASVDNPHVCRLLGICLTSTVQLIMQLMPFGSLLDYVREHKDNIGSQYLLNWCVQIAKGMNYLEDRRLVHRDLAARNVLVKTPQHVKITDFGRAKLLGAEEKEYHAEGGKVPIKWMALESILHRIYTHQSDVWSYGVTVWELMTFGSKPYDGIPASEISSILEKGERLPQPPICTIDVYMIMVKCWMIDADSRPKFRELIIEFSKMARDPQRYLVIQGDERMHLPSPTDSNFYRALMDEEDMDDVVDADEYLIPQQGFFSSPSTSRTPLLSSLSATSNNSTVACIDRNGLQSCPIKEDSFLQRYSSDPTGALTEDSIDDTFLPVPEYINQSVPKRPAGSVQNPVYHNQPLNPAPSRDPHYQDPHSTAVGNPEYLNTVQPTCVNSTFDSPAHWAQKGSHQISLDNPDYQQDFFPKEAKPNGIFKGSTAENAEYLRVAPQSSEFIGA

Row | DC50 [1, 5] [nM] | Dmax [1, 6] [%] | DC50 [2, 7] [nM] | DC50 [3, 9] [nM] | Dmax [4, 10] [%] | DC50 [4, 11] [nM] | SMILES | Dmax (%) H1975 # 28 DTC [2, 8] [%] | H1975 #23 DC Dmax (%) ([3]; 16h treatment) | DC50 ([1]; read-out: DC50(nM) BaF3-LTC; BaF3-LTC cells; EGFR degradation, IC50 (DC50) from curve fit) [nM] | Dmax ([1]; read-out: Dmax (%) BaF3-LTC, BaF3-LTC cells; maximum percentage of inhibition (degradation)) [%] | DC50 [2, 12] [nM] | DC50 [3, 13] [nM] | Dmax ([4]; BaF3, read-out: BaF3 LC Dmax (%)) [%] | DC50 ([4]; read-out: BaF3 LC DC50; BaF3 LC, 16h treatment) [nM] | Dmax (%) BaF3-LTC [1, 14] [%] | BaF3 LC Dmax (%) ([4]; BaF3 LC, 16h treatment, maximum percentage of degradation)
1 | 3.63 | 97.3 | 0.632 | 1.58 | 83.9 | 14.9 | CCc1cc(Nc2ncc(Br)c(Nc3ccc4c(=O)n(C)ncc4c3P(C)(C)=O)n2)c(OC)cc1N1CCC(N2CCN(C(=O)[C@@H]3CCN(c4cc(F)c([C@H]5CCC(=O)NC5=O)c(F)c4)C3)CC2)CC1 [Example 528, (R)-3-(4-((R)-3-(4-(1-(4-((5-bromo-4-((5-(dimethylphosphoryl)-2-methyl-1-oxo-1,2-dihydrophthalazin-6-yl)amino)pyrimidin-2-yl)amino)-2-ethyl-5-methoxyphenyl)piperidin-1)piperazine-1-carbonyl)pyrrolidin-1-yl)2,6-difluorophenyl)piperidine-2,6-dione] | 86.11 | 54.87 |  |  |  |  |  |  |  | 
2 |  |  |  |  |  |  | CCc1ccc2c(P(C)(C)=O)c(Nc3nc(Nc4cc(CC)c(N5CCC(N6CCN(C(=O)C7CN(c8cccc9c8oc(=O)n9C8CCC(=O)NC8=O)C7)CC6)CC5)cc4OC)ncc3Br)ccc2n1 (centres unmarked) [Example 446, 3-(7-(3-(4-(1-(4-((5-bromo-4-((5-(dimethylphosphoryl)-2-ethylquinolin-6-yl)amino)pyrimidin-2-yl)amino)-2-ethyl-5-methoxyphenyl)piperidin-4-yl)piperazine-1-carbonyl)azetidin-1-yl)-2-oxobenzo[d]oxazol-3(2H)-yl)piperidine-2,6-dione] | 80.48 | 59.25 | 3.89 | 96.4 | 0.726 | 0.616 | 81.7 | 5.87 |  | 
3 | 2.96 |  | 0.642 | 0.591 | 88.1 | 3.84 | CCOc1cc(N2CCC(N3CCN(CCc4ccc5c(c4)oc(=O)n5C4CCC(=O)NC4=O)CC3)CC2)c(CC)cc1Nc1ncc(Br)c(Nc2ccc3nc(C)ccc3c2P(C)(C)=O)n1 (centres unmarked) [Example 532] | 70.91 | 52.49 |  |  |  |  |  |  | 95.58 | 
4 | 418 | 80.5 | > 10000 | 9540 | 86.6 | 300 | CCOc1cc(N2CCC(N3CCN(CCc4ccc(C)c5c4oc(=O)n5C4CCC(=O)NC4=O)CC3)CC2)c(CC)cc1Nc1ncc(Br)c(Nc2ccc3nc(CC)ccc3c2P(C)(C)=O)n1 (centres unmarked) [Example 470, 3-(7-(2-(4-(1-(4-((5-bromo-4-((5-(dimethylphosphoryl)-2-ethylquinolin-6-yl)amino)pyrimidin-2-yl)amino)-5-ethoxy-2-ethylphenyl)piperidin-4-yl)piperazin-1-yl)ethyl)-4-methyl-2-oxobenzo[d]oxazol-3(2H)-yl)piperidine-2,6-dione] | 39.87 | 64.89 |  |  |  |  |  |  |  | 
5 | 3.77 | 96.3 | 0.574 | 5.87 | 74.6 | 40.3 | CCc1cc(Nc2ncc(Br)c(Nc3ccc4c(=O)n(C5CC5)ncc4c3P(C)(C)=O)n2)c(OC)cc1N1CCC(N2CCN(C(=O)[C@@H]3CCN(c4cc(F)c([C@H]5CCC(=O)NC5=O)c(F)c4)C3)CC2)CC1 [Example 526, (R)-3-(4-((R)-3-(4-(1-(4-((5-bromo-4-((2-cyclopropyl-5-(dimethylphosphoryl)-1-oxo-1,2-dihydrophthalazin-6-yl)amino)pyrimidin-2-yl)amino)-2-ethyl-5-methoxyphenyl)piperidin-4-yl)piperazine-1-carbonyl)pyrrolidin-1-yl)-2,6-difluorophenyl)piperidine-2,6-dione] | 83.99 | 52.26 |  |  |  |  |  |  |  | 
6 | 13.4 |  | 3.22 | 5.6 |  | 36.1 | CCc1ccc2c(P(C)(C)=O)c(Nc3nc(Nc4cc(CC)c(N5CCC(N6CCN(C(=O)[C@H]7CN(c8cc(F)c([C@H]9CCC(=O)NC9=O)c(F)c8)CC7(C)C)CC6)CC5)cc4OC)ncc3Br)ccc2n1 [Example 754, (R)-3-(4-((R)-4-(4-(1-(4-((5-bromo-4-((5-(dimethylphosphoryl)-2-ethylquinolin-6-yl)amino)pyrimidin-2-yl)amino)-2-ethyl-5-methoxyphenyl)piperidin-4-yl)piperazine-1-carbonyl)-3,3-dimethylpyrrolidin-1-yl)-2,6-difluorophenyl)piperidine-2,6-dione] | 86.62 | 71.73 |  |  |  |  |  |  |  | 
7 | 7 |  | 1.34 | 1.57 |  | 7.53 | CCOc1cc(N2CCC(N3CCN(CCc4c(F)ccc5c4n(C)c(=O)n5C4CCC(=O)NC4=O)CC3)CC2)c(CC)cc1Nc1ncc(Br)c(Nc2ccc3nc(CC)ccc3c2P(C)(C)=O)n1 (centres unmarked) [Example 503, 3-(4-(2-(4-(1-(4-((5-bromo-4-((5-(dimethylphosphoryl)-2-ethylquinolin-6-yl)amino)pyrimidin-2-yl)amino)-5-ethoxy-2-ethylphenyl)piperidin-4-yl)piperazin-1-yl)ethyl)-5-fluoro-3-methyl-2-oxo-2,3-dihydro-1H-benzo[d]imidazol-1-yl)piperidine-2,6-dione] | 79.81 | 81.03 |  |  |  |  |  |  |  | 
8 | 5.05 | 97.2 | 1.18 | 7.47 | 90.8 | 28.8 | CCc1ccc2c(P(C)(C)=O)c(Nc3nc(Nc4cc(CC)c(N5CCC(N6CCN(C(=O)[C@@H]7CCN(c8cc(F)c([C@H]9CCC(=O)NC9=O)c(F)c8)C7)CC6)CC5)cc4OC)ncc3Br)cc(F)c2n1 [Example 533, (R)-3-(4-((R)-3-(4-(1-(4-((5-bromo-4-((5-(dimethylphosphoryl)-2-ethyl-8-fluoroquinolin-6-yl)amino)pyrimidin-2-yl)amino)-2-ethyl-5-methoxyphenyl)piperidin-4-yl)piperazine-1-carbonyl)pyrrolidin-1-yl)-2,6-difluorophenyl)piperidine-2,6-dione] | 83.78 | 73.47 |  |  |  |  |  |  |  | 

Row | SMILES | DC50 [1, 5] [nM] | Dmax [1, 6] [%] | DC50 [2, 7] [nM] | DC50 [3, 9] [nM] | Dmax [4, 10] [%] | DC50 [4, 11] [nM] | Dmax (%) H1975 # 28 DTC [2, 8] [%] | H1975 #23 DC Dmax (%) ([3]; 16h treatment) | DC50 ([1]; read-out: DC50(nM) BaF3-LTC; BaF3-LTC cells; EGFR degradation, IC50 (DC50) from curve fit) [nM] | Dmax ([1]; read-out: Dmax (%) BaF3-LTC, BaF3-LTC cells; maximum percentage of inhibition (degradation)) [%] | DC50 [2, 12] [nM] | DC50 [3, 13] [nM] | Dmax ([4]; BaF3, read-out: BaF3 LC Dmax (%)) [%] | DC50 ([4]; read-out: BaF3 LC DC50; BaF3 LC, 16h treatment) [nM] | Dmax (%) BaF3-LTC [1, 14] [%] | BaF3 LC Dmax (%) ([4]; BaF3 LC, 16h treatment, maximum percentage of degradation)
9 | CCOc1cc(N2CCC(N3CCN(CCc4cccc5c4oc(=O)n5C4CCC(=O)NC4=O)CC3)CC2)c(CC)cc1Nc1ncc(Br)c(Nc2ccc3c(=O)n(CC)ncc3c2P(C)(C)=O)n1 (centres unmarked) [Example 455, 3-(7-(2-(4-(1-(4-((5-bromo-4-((5-(dimethylphosphoryl)-2-ethyl-1-oxo-1,2-dihydrophthalazin-6-yl)amino)pyrimidin-2-yl)amino)-5-ethoxy-2-ethylphenyl)piperidin-4-y)piperazin-1-yl)ethyl)-2-oxobenzo[d]oxazol-3(2H)-yl)piperidine-2,6-dione] | 3.83 |  | 0.47 | 2.31 |  | 121 | 79.19 | 77.73 |  |  |  |  |  |  | 87.13 | 77.76
10 | CCc1ncc2c(P(C)(C)=O)c(Nc3nc(Nc4cc(CC)c(N5CCC(N6CCN(CCc7ccc8c(c7)oc(=O)n8C7CCC(=O)NC7=O)CC6)CC5)cc4OC)ncc3Br)ccc2n1 (centres unmarked) [Example 499, 3-(6-(2-(4-(1-(4-((5-bromo-4-((5-(dimethylphosphoryl)-2-ethylquinazolin-6-yl)amino)pyrimidin-2-yl)amino)-2-ethyl-5-methoxyphenyl)piperidin-4-yl)piperazin-1-yl)ethyl)-2-oxobenzo[d]oxazol-3(2H)-yl)piperidine-2,6-dione] | 1.95 |  |  |  |  | 0.955 | 77.41 | 61.96 |  |  | 0.185 | 0.646 |  |  |  | 

Source: US20230265116A1, “DEGRADATION OF (EGFR) BY CONJUGATION OF EGFR INHIBITORS WITH E3 LIGASE LIGAND AND METHODS OF USE” (BEIGENE, LTD., priority 2020, published 2023)
